Source: patent publication US12286443B2, “Bycyclic JAK inhibitors and uses thereof” (Insilico Medicine IP Limited, priority 2019, dated 2025)
Where two headings read alike, the source gives them in different places.

Key:
JAK2 = target: T1, JAK2 (Homo sapiens, UniProt O60674); experiment: Inhibition of JAK2 kinase, LANCE Ultra TR-FRET assay; format: biochemical; details: 2x ATP 24 μM, 15 min pre-incubation, 90 min reaction, 23° C.
T1 construct: purchased Invitrogen PV4210
Protocol: (§1) Exemplary compounds were assayed to determine potency in inhibiting activity of JAK1-3 and TYK2 kinases by determining IC50 values.
(§2) The sources of test materials and equipment are as follows: JAK1 (Invitrogen, Cat. No PV4775), JAK2 (Invitrogen, Cat. No PV4210), JAK3 (Invitrogen, Cat. No PV4080), TYK2 (Invitrogen, Cat. No PR8440C), ATP (Sigma, Cat. No. A7699-1G), DMSO (Sigma, Cat. No. D2650), DTT (Sigma, Cat. No. 43815), 384 wells_compound plate (Greiner, Cat. No. 781280), 384 wells_assay plate (Perkin Elmer, Cat. No. 6007299), LANCE Ultra ULight™-JAK-1 peptide (Perkin Elmer, Cat. No. TRF0121), LANCET™ Eu-W1024 Anti-phosphotyrosine (PT66) (Perkin Elmer, Cat. No. AD0069), LANCET™ Detection Buffer(Perkin Elmer, Cat. No. CR97-100).
(§3) The concentrations of test compounds varied from 100 μM to 1.7 nM with 3-fold dilution, 11 points, in duplicates while the concentrations of the reference compound, Tofacitinib, varied from 1 μM to 0.017 nM with 3-fold dilution, 11 points, in duplicates.
(§4) The assay buffer contained 50 mM HEPES (pH 7.5), 0.01% Brij-35, 10 mM MgCl2, 1 mM EDTA, 2 mM DTT. Incubations were carried out at 23° C.
(§5) Prior to the assay, enzyme, peptide substrate and serially diluted test compounds were pre-incubated together in assay buffer (5 μL) for 15 minutes (peptide substrate concentration: 50 nM; JAK enzyme concentrations: 2 nM JAK1; […]; […] and 4 nM TYK2). And the assay was initiated by the addition of 5 μL assay buffer containing 2× final ATP concentration (these are the 2×ATP concentrations: 76 μM JAK1; 24 μM JAK2; 8 μM JAK3 and 30 μM TYK2). Following the 90-minute incubation, antibody conjugated with Eu is dissolved in detection buffer to add into wells and then incubated for 60 minutes. The 10 μL detection buffer contains EDTA to stop the enzymatic reaction. The plate is analyzed by Perkin Elmer Envision on TR-FRET mode. The high ratio of 665/615 represents no inhibition of kinase reaction while the low ratio of 665/615 represents complete inhibition of kinase reaction.
(§6) Curves are fit by XLFIT5 as inhibition rate % vs. log [compound concentration] using 4 parameters logistic model 205.
(§7) In the table, “A” indicates an IC50 of less than 100 nM, “B” indicates an IC50 range from 100 nM to 500 nM; “C” indicates an IC50 range from 500 nM to 2 μM; and “D” indicates an IC50 greater than 2 μM. Also, “na” indicates data is not available.

Hut-78 cells = experiment: Inhibition in Hut-78 cells (IL-2 stimulated, HTRF); format: cell-based; details: Homo sapiens
Protocol: Exemplary compounds were assayed to determine potency in inhibiting Hut-78 cells by determining IC50 values.
Hut-78 cells were cultures in IMDM+20% FBS medium. Cells were maintained in log phase before the assay. Cell pellets were collected and resuspended in serum-free and phenol-free RPMI 1640 medium. 40,000 cells/well (10 μL) were seeded in each well of a 384-well plate and incubated with and without compound for 2 hours at 37° C. and 5% C02. IL-2 was added (2 μL, final concentration 100 ng/mL) and the mixture was incubated for 10 min. Cells were lysed by adding 4 μL labeled antibodies and the mixture was incubated overnight. The plate was read using the HTRF protocol on an Envision plate reader. The data was analyzed using XL-fit software (Supplier: ID business solutions Ltd.; Software version: XL fit 5.0). Inhibition %=(Max−Sample value)/(Max−Min)*100.
In the table, “A” indicates an IC50 of less than 0.5 μM, “B” indicates an IC50 range from 0.5 μM to 1 μM; and “C” indicates an IC50 range from 1 μM to 10 μM. Also, “na” indicates data is not available.

JAK1 = target: T2, JAK1 (Homo sapiens, UniProt P23458); experiment: Inhibition of JAK1 kinase, LANCE Ultra TR-FRET assay; format: biochemical; details: 2 nM JAK1, 2x ATP 76 μM, 15 min pre-incubation, 90 min reaction, 23° C.
T2 construct: purchased Invitrogen PV4775
T2 sequence (P23458 whole entry): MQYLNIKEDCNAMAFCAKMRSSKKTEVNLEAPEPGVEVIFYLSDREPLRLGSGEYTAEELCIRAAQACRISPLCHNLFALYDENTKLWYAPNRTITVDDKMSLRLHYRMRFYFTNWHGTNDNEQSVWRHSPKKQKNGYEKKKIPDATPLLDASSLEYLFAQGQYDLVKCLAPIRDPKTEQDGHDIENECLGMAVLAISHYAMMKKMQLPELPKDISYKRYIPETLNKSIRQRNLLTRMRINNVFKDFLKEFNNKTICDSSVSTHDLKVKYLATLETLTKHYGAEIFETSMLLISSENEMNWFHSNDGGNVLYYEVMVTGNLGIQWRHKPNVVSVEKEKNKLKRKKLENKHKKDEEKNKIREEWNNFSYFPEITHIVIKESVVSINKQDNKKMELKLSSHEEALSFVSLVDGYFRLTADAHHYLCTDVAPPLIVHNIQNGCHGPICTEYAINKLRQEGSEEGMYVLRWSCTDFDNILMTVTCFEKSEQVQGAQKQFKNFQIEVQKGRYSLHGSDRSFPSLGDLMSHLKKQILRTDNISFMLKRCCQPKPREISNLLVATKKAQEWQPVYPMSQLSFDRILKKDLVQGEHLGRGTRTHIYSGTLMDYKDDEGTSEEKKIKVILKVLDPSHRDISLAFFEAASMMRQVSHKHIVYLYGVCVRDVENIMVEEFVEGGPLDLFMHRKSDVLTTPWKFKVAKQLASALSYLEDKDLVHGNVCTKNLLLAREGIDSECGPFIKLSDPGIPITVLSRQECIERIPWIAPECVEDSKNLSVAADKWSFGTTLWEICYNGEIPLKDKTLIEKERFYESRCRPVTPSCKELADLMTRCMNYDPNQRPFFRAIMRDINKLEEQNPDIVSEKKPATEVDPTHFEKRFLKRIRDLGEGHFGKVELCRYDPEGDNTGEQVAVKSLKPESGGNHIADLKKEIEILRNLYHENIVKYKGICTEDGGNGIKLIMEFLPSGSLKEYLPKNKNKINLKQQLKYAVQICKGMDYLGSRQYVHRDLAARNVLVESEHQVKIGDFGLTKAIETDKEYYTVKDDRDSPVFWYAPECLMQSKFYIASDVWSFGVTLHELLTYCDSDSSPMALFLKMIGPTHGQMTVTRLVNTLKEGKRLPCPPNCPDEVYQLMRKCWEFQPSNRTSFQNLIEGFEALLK
Protocol: as §1, §2, §3, §4, §5, §6, §7

TYK2 = target: T3, TYK2 (Homo sapiens, UniProt P29597); experiment: Inhibition of TYK2 kinase, LANCE Ultra TR-FRET assay; format: biochemical; details: 4 nM TYK2, 2x ATP 30 μM, 15 min pre-incubation, 90 min reaction, 23° C., read-out: tyk IC50
T3 construct: purchased Invitrogen PR8440C
T3 sequence (P29597 whole entry): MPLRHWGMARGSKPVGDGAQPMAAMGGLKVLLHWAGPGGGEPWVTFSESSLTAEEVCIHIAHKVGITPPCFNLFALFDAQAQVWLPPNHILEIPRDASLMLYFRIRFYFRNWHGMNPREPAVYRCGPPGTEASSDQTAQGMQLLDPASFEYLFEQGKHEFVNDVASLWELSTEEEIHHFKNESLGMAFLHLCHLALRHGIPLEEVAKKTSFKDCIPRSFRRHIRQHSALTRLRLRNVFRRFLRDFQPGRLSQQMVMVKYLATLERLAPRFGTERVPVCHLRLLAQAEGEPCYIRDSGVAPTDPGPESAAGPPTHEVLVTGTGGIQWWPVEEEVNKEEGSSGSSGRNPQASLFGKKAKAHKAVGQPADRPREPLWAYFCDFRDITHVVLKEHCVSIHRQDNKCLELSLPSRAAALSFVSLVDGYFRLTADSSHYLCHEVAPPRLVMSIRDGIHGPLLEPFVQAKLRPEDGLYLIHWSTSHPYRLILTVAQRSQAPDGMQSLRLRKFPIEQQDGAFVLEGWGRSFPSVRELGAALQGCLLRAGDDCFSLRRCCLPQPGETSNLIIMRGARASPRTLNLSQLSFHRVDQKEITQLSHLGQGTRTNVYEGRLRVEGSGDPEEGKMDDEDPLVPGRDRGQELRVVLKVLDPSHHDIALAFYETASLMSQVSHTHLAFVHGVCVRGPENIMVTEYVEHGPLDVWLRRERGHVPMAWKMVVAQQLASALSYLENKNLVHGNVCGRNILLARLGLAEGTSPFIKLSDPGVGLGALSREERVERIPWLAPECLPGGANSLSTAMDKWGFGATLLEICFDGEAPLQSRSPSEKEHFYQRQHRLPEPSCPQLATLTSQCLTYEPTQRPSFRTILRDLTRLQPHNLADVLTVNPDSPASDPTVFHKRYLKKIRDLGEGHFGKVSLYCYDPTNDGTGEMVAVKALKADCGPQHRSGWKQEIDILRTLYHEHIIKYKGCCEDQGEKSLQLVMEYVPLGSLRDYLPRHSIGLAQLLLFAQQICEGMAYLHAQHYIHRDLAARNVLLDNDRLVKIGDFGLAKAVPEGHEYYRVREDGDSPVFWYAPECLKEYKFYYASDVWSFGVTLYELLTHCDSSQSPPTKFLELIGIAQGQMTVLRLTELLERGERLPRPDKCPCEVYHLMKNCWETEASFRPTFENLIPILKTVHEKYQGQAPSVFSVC
Protocol: as §1, §2, §3, §4, §5, §6, §7

JAK3 = target: T4, JAK3 (Homo sapiens, UniProt P52333); experiment: Inhibition of JAK3 kinase, LANCE Ultra TR-FRET assay; format: biochemical; details: 2x ATP 8 μM, 15 min pre-incubation, 90 min reaction, 23° C.
T4 construct: purchased Invitrogen PV4080
T4 sequence (P52333 1-1124): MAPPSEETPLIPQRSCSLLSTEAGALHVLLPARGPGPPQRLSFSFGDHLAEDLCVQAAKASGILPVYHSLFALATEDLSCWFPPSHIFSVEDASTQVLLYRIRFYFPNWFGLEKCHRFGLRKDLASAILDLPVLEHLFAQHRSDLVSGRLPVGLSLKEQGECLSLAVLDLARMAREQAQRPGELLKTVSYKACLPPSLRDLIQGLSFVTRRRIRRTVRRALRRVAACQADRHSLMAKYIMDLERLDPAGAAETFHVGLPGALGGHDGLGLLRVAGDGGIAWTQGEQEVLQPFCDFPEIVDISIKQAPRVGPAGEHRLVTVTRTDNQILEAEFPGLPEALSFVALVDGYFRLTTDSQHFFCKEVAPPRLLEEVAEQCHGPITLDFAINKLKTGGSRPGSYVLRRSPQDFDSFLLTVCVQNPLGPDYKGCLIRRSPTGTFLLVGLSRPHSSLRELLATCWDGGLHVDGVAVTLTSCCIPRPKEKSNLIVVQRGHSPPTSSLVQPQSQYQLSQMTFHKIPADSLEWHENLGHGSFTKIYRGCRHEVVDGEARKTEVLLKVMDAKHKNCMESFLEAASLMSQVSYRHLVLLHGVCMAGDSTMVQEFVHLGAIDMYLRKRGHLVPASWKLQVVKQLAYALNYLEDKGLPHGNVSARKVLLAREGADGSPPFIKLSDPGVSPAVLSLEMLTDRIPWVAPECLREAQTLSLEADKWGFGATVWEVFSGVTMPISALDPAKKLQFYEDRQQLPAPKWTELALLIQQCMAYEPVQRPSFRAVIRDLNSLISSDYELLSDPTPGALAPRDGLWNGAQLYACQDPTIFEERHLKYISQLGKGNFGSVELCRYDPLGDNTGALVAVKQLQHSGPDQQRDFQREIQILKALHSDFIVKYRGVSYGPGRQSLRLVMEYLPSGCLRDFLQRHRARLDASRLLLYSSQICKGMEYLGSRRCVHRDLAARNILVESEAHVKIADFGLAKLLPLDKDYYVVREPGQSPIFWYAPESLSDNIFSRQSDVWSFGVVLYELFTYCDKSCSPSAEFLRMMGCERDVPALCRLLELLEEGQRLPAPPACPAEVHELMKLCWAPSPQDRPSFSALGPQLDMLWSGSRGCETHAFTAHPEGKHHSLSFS
Protocol: as §1, §2, §3, §4, §5, §6, §7

[1] = HuT78, compound 2 hours at 37° C., then IL-2 100 ng/mL 10 min, HTRF, read-out: Hut-78 cells IC50

T1 sequence (O60674 whole entry): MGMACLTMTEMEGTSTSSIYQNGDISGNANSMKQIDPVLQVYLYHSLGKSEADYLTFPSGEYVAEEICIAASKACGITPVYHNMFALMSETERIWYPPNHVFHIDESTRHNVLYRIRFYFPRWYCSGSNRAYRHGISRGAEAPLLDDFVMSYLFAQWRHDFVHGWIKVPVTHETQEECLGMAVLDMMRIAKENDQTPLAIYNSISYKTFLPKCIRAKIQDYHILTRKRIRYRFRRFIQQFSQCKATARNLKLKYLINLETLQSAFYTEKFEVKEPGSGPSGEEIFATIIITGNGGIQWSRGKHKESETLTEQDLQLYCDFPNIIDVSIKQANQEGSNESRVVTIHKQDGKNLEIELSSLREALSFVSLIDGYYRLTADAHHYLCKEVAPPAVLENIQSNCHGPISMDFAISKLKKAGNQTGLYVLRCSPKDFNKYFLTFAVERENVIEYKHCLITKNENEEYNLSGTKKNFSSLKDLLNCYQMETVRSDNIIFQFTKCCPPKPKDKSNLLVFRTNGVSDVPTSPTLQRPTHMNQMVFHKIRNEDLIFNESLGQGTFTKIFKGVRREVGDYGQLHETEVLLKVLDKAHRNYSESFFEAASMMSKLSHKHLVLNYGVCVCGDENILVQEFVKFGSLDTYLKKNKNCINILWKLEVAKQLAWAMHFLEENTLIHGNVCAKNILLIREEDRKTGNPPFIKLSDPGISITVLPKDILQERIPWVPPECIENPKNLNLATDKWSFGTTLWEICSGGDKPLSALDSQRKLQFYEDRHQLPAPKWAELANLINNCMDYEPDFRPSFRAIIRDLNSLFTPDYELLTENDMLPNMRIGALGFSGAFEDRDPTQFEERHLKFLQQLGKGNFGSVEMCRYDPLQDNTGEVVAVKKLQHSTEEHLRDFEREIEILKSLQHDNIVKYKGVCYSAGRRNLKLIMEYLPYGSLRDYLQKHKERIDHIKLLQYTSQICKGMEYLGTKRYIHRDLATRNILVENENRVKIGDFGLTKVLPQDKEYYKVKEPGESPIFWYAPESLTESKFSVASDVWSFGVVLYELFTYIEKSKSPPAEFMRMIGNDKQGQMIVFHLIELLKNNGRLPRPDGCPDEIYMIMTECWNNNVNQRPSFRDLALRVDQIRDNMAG

Row | Compound | IC50 (JAK2) [nM] | IC50 (Hut-78 cells; [1]) [µM] | IC50 (JAK1) [nM] | IC50 (TYK2) [nM] | IC50 (JAK3) [nM] | IC50 (Hut-78 cells; HuT78, read-out: Hut-78 cells IC50 (μM)) [µM]
1 | O=C(c1noc2c1CN(c1ncnc3[nH]ccc13)CC2)N1CC(C(F)(F)F)C1 [Compound 194] | < 100 | < 0.5 | < 100 | 100 to 500 | < 100 | 
2 | O=C(N[C@H]1C[C@@](O)(C(F)(F)F)C1)c1noc2c1CN(c1ncnc3[nH]ccc13)CC2 [Compound 202] | < 100 | < 0.5 | < 100 | 500 to 2000 | < 100 | 
3 | N#Cc1cn(C(=O)NCCC(F)(F)F)c2c1CCN(c1ncnc3[nH]ccc13)C2 [Compound 143] | 100 to 500 | 1 to 10 | 100 to 500 | 500 to 2000 | < 100 | 
4 | O=C(NCC(O)C(F)(F)F)c1noc2c1CN(c1ncnc3[nH]ccc13)CC2 (stereo not shown) [Compound 190] | < 100 | < 0.5 | < 100 | 100 to 500 | < 100 | 
5 | O=C(NCCC(F)(F)F)c1nn(C(=O)CCc2ccccc2)c2c1CN(c1ncnc3[nH]ccc13)CC2 [Compound 103] | 100 to 500 | 1 to 10 | 100 to 500 | > 2000 | < 100 | 
6 | O=C(NCC1CC1(F)F)c1noc2c1CN(c1ncnc3[nH]ccc13)CC2 (stereo not shown) [Compound 179] | 100 to 500 | 1 to 10 | 100 to 500 | > 2000 | < 100 | 
7 | O=C(NCC(F)(F)F)c1noc2c1CN(c1ncnc3[nH]ccc13)CC2 [Compound 178] | < 100 |  | < 100 | 500 to 2000 | < 100 | 0.5 to 1
8 | O=C(NCCC(F)(F)F)c1onc2c1CN(c1ncnc3[nH]ccc13)CC21CC1 [Compound 193] | 100 to 500 | 0.5 to 1 | 100 to 500 | 500 to 2000 | < 100 | 
9 | O=C(NCCC(F)(F)F)c1n[nH]c2c1CN(c1ncnc3[nH]ccc13)CC2 [Compound 109] | 100 to 500 | 1 to 10 | < 100 | 500 to 2000 | < 100 | 
10 | CC1(CNC(=O)c2noc3c2CN(c2ncnc4[nH]ccc24)CC3)CC(F)(F)C1 [Compound 199] | 100 to 500 | < 0.5 | < 100 | 500 to 2000 | < 100 | 
11 | CCS(=O)(=O)n1nc(C(=O)NCCC(F)(F)F)c2c1CCN(c1ncnc3[nH]ccc13)C2 [Compound 102] | 100 to 500 | 1 to 10 | 500 to 2000 | > 2000 | < 100 | 
12 | O=C(NCCC(F)(F)F)c1noc2c1CN(c1ncnc3[nH]ccc13)CC2 [Compound 110] | < 100 | 0.5 to 1 | < 100 | 100 to 500 | < 100 | 
13 | COCCn1nc(C(=O)NCCC(F)(F)F)c2c1CCN(c1ncnc3[nH]ccc13)C2 [Compound 104] | 100 to 500 | 0.5 to 1 | 100 to 500 | > 2000 | < 100 | 
14 | CN1CCCC1CCNC(=O)c1noc2c1CN(c1ncnc3[nH]ccc13)CC2 (stereo not shown) [Compound 155] | 500 to 2000 |  | 500 to 2000 | > 2000 | 500 to 2000 | 
15 | Cn1cc(C(=O)NCCC(F)(F)F)c2c1CCN(c1ncnc3[nH]ccc13)C2 [Compound 130] | 100 to 500 |  | < 100 | 100 to 500 | < 100 | 
16 | O=C(NCCS(=O)(=O)N1CCCCC1)c1noc2c1CN(c1ncnc3[nH]ccc13)CC2 [Compound 136] | > 2000 |  | 500 to 2000 | > 2000 | 100 to 500 | 
17 | O=C(NCC1CC1)c1noc2c1CN(c1ncnc3[nH]ccc13)CC2 [Compound 180] | 100 to 500 |  | 100 to 500 | > 2000 | < 100 | 
18 | O=C(NCCS(=O)(=O)N1CCC1)c1noc2c1CN(c1ncnc3[nH]ccc13)CC2 [Compound 134] | 500 to 2000 |  | 500 to 2000 | > 2000 | 100 to 500 | 
